Measurements: patent US20230075856A1, “CYCLIC SULFAMIDE COMPOUNDS FOR TREATMENT OF HBV” (Assembly Biosciences, Inc., priority 2018, published 2023)

Tested on: HBV viral load production from HepAD38 cells
Experiment: Viral production from HepAD38 cells: viral load in supernatant by qPCR of the HBV core sequence
Format: cell-based
Settings: 5 days incubation, qPCR of supernatant HBV DNA vs DMSO control, read-out: viral load lowering EC50 (Activity)
How it was run: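 Viral load was measured by qPCR of the HBV core region in supernatant, quantified against DNA standards and compared with DMSO wells. Cells (50,000/well, tetracycline withdrawn, 2% FBS) received compound from 10 μM final for 5 days; EC50 from four-parameter nonlinear regression.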

| SMILES | EC50 [nM] |
| --- | --- |
| CN1C(C(=O)Nc2ccc(F)c(Cl)c2)CC(C(=O)NCc2cnc(-c3cccnc3)s2)NS1(=O)=O (single isomer, unassigned; isomer-b) [Compound 911-ISOMER-B, N3-(3-chloro-4-fluoro-phenyl)-2-methyl-1,1-dioxo-N5-[[2-(3-pyridyl)thiazol-5-yl]methyl]-1,2,6-thiadiazinane-3,5-dicarboxmaide] | < 50 |
| Cc1cn(-c2ccc(F)cc2F)nc1CNC(=O)C1CC(C(=O)Nc2ccc(F)c(Cl)c2)N(C)S(=O)(=O)N1 (single isomer, unassigned) [1144-ISOMER-B, N3-(3-chloro-4-fluoro-phenyl)-N5-[[1-(2,4-difluorophenyl)-4-methyl-pyrazol-3-yl]methyl]-2-methyl-1,1-dioxo-1,2,6-thiadiazinane-3,5-dicarboxamide] | 100 to 10000 |
| CN1C(C(=O)Nc2ccc(F)c(Cl)c2)CC(C(=O)NC2CCN(c3ccnc(-c4ccccc4)c3)CC2)NS1(=O)=O (single isomer, unassigned) [1050-ISOMER-B, N3-(3-chloro-4-fluoro-phenyl)-2-methyl-1,1-dioxo-N5-[1-(2-phenyl-4-pyridyl)-4-piperidyl]-1,2,6-thiadiazinane-3,5-dicarboxamide] | < 50 |
| CN1C(C(=O)Nc2ccc(F)c(Cl)c2)CC(C(=O)NC2CCN(c3ccnc(Br)c3)CC2)NS1(=O)=O (single isomer, unassigned) [1036-ISOMER-B, N5-[1-(2-bromo-4-pyridyl)-4-piperidyl]-N3-(3-chloro-4-fluoro-phenyl)-2-methyl-1,1-dioxo-1,2,6-thiadiazinane-3,5-dicarboxamide] | 100 to 10000 |
| Cc1nc(-c2ccc(F)cc2F)sc1CNC(=O)C1CC(C(=O)Nc2ccc(F)c(Cl)c2)N(C)S(=O)(=O)N1 (single isomer, unassigned; isomer-b) [1083-ISOMER-B, N3-(3-chloro-4-fluoro-phenyl)-N5-[[2-(2,4-difluroophenyl)-4-methyl-thiazol-5-yl]methyl]-2-methyl-1,1-dioxo-1,2,6-thiadiazinane-3,5-dicarboxamide] | 100 to 10000 |
| Cc1c(CNC(=O)C2CC(C(=O)Nc3ccc(F)c(Cl)c3)N(C)S(=O)(=O)N2)nnn1-c1ccccc1 (single isomer, unassigned; isomer-a) [1148-ISOMER-A, N3-(3-chloro-4-fluoro-phenyl)-2-methyl-N5-[(5-methyl-1-phenyl-triazol-4-yl)methyl]-1,1-dioxo-1,2,6-thiadiazinane-3,5-dicarboxamide] | 50 to 100 |
| Cc1ncc(CNC(=O)C2CC(C(=O)Nc3ccc(F)c(Cl)c3)N(C)S(=O)(=O)N2)s1 (single isomer, unassigned; isomer-a) [Compound 495-ISOMER-A, N3-(3-chloro-4-fluroo-phenyl)-2-methyl-N5-[(2-methylthiazol-5-yl)methyl]-1,1-dioxo-1,2,6-thiadiazinane-3,5-dicarboxamide] | 100 to 10000 |

Same assay, conditions: Hepatitis B virus, HePAD38, 120 h, 5 days incubation, qPCR of supernatant HBV DNA vs DMSO control, read-out: viral load lowering EC50 (Activity)

| SMILES | EC50 [nM] |
| --- | --- |
| COC(=O)N1CCC(NC(=O)C2CC(C(=O)Nc3ccc(F)c(Cl)c3)N(C)S(=O)(=O)N2)CC1 (single isomer, unassigned) [Compound 477-ISOMER-A, methyl 4-[[5-[(3-chloro-4-fluoro-phenyl)carbamoyl]-6-methyl-1,1-dioxo-1,2,6-thiadiazinane-3-carbonyl]amino]piperidine-1-carboxylate] | < 50 |
| CN1C(C(=O)Nc2ccc(F)c(Cl)c2)CC(C(=O)NCc2nc3ccccc3s2)NS1(=O)=O (stereo not drawn) [Compound 689] | < 50 |
| CN1C(C(=O)Nc2ccc(F)c(Cl)c2)CC(C(=O)NCc2cc(-c3ccc(F)cc3)nn2C)NS1(=O)=O (stereo not drawn) [Compound 1143] | < 50 |
| CN1C(C(=O)Nc2ccc(F)c(Cl)c2)CC(C(=O)NCc2cnc(-c3ccc(O)cc3Cl)s2)NS1(=O)=O (stereo not drawn) [Compound 1028] | < 50 |
| CN1C(C(=O)Nc2ccc(F)c(Cl)c2)CC(C(=O)NC2CCN(S(=O)(=O)C(F)(F)F)CC2)NS1(=O)=O (stereo not drawn) [Compound 856] | 100 to 10000 |
| CCN1C(C(=O)Nc2ccc(F)c(Cl)c2)CC(C(=O)NC2CCN(C(=O)OC)CC2)NS1(=O)=O (stereo not drawn) [Compound 890] | < 50 |
| CN1C(C(=O)Nc2ccc(F)c(Cl)c2)CC(C(=O)NCc2nc3ccc(O)cc3s2)NS1(=O)=O (stereo not drawn) [Compound 1010] | < 50 |
| Cc1ncc(CNC(=O)C2CC(C(=O)Nc3ccc(F)c(Cl)c3)N(CC(F)(F)F)S(=O)(=O)N2)s1 (stereo not drawn) [Compound 891] | 100 to 10000 |
| Cc1ncc(CNC(=O)C2CC(C(=O)Nc3ccc(F)c(Cl)c3)N(C)S(=O)(=O)N2)s1 (single isomer, unassigned) [Compound 495-ISOMER-B, N3-(3-chloro-4-fluoro-phenyl)-2-methyl-N5-[(2-methylthiazol-5-yl)methyl]-1,1-dioxo-1,2,6-thiadiazinane-3,5-dicarboxamide] | < 50 |
| Cc1sc(N2CCC(NC(=O)C3CC(C(=O)Nc4ccc(F)c(Cl)c4)N(C)S(=O)(=O)N3)CC2)nc1C(=O)N(C)C (stereo not drawn) [Compound 1093] | < 50 |
| CN1C(C(=O)Nc2ccc(F)c(Cl)c2)CC(C(=O)NCc2cnc(-c3ccc(O)cc3)s2)NS1(=O)=O (single isomer, unassigned) [Compound 924-ISOMER-B, N3-(3-chloro-4-fluoro-phenyl)-N5-[[2-(4-hydroxyphenyl)thiazol-5-yl]methyl]-2-methyl-1,1-dioxo-1,2,6-thiadiazinane-3,5-dicarboxamide] | < 50 |
| CN1C(C(=O)Nc2ccc(F)c(Cl)c2)CC(C(=O)NC(c2ccccc2)c2ccccc2)NS1(=O)=O (stereo not drawn) [Compound 1014] | < 50 |
| Cc1nc(-c2ccccc2)sc1CNC(=O)C1CC(C(=O)Nc2ccnc(Cl)c2)N(C)S(=O)(=O)N1 (stereo not drawn) [Compound 1137] | < 50 |
| CN1C(C(=O)Nc2ccc(F)c(Cl)c2)CC(C(=O)NC2CCN(c3ccnc(C4CC4)c3)CC2)NS1(=O)=O (stereo not drawn) [Compound 1051] | < 50 |
| CN1C(C(=O)Nc2ccc(F)c(Cl)c2)CC(C(=O)NCc2cnc(-c3ccc(OCCCN4CCCC4)cc3)s2)NS1(=O)=O (stereo not drawn) [Compound 928] | 50 to 100 |
| CN1C(C(=O)Nc2ccc(F)c(Cl)c2)CC(C(=O)NCc2ccccc2-c2cn(C)cn2)NS1(=O)=O (single isomer, unassigned) [Compound 823-ISOMER-B, N3-(3-chloro-4-fluoro-phenyl)-2-methyl-N5-[[2-(1-methylimidazol-4-yl)phenyl]methyl]-1,1-dioxo-1,2,6-thiadiazinane-3,5-dicarboxamide] | 100 to 10000 |
| CN1C(C(=O)Nc2ccc(F)c(Cl)c2)CC(C(=O)NC2CCN(C(=O)C3CC3)CC2)NS1(=O)=O (stereo not drawn) [Compound 854] | < 50 |
| CN1C(C(=O)Nc2ccc(F)c(Cl)c2)CC(C(=O)NC2CCN(c3cc(CN4CCCCC4)ccn3)CC2)NS1(=O)=O (single isomer, unassigned) [Compound 975-ISOMER-A, N3-(3-chloro-4-fluoro-phenyl)-2-methyl-1,1-dioxo-N5-[1-[4-(1-piperidylmethyl)-2-pyridyl]-4-piperidyl]-1,2,6-thiadiazinane-3,5-dicarboxamide] | < 50 |
| Cc1cn(-c2ccc(F)cc2F)nc1CNC(=O)C1CC(C(=O)Nc2ccc(F)c(Cl)c2)N(C)S(=O)(=O)N1 (stereo not drawn) [Compound 1144] | < 50 |
| CN1C(C(=O)Nc2ccc(F)c(Cl)c2)CC(C(=O)N[C@H](c2ccccc2)c2cnc(Cl)s2)NS1(=O)=O (single isomer, unassigned) [1066-ISOMER-A] | 100 to 10000 |
| COc1ccc2nc(CNC(=O)C3CC(C(=O)Nc4ccc(F)c(Cl)c4)N(C)S(=O)(=O)N3)sc2c1 (single isomer, unassigned) [1011-ISOMER-B, N3-(3-Chloro-4-fluoro-phenyl)-N5-[(6-methoxy-1,3-benzothiazol-2-yl)methyl]-2-methyl-1,1-dioxo-1,2,6-thiadiazinane-3,5-dicarboxamide] | < 50 |
| COc1ccc(CNC(=O)C2CC(C(=O)Nc3ccc(F)c(Cl)c3)N(C)S(=O)(=O)N2)cc1 (single isomer, unassigned) [Compound 717-ISOMER-A, N3-(3-chloro-4-fluoro-phenyl)-N5-[(4-methoxyphenyl)methyl]-2-methyl-1,1-dioxo-1,2,6-thiadiazinane-3,5-dicarboxamide] | < 50 |
| Cc1nc(-c2ccccc2)sc1CNC(=O)C1CC(C(=O)Nc2ccc(F)c(C#N)c2)N(C)S(=O)(=O)N1 (single isomer, unassigned) [1136-ISOMER-A, N3-(3-cyano-4-fluoro-phenyl)-2-methyl-N5-[(4-methyl-2-phenyl-thiazol-5-yl)methyl]-1,1-dioxo-1,2,6-thiadiazinane-3,5-dicarboxamide] | < 50 |
| Cc1c(CNC(=O)C2CC(C(=O)Nc3ccc(F)c(Cl)c3)N(C)S(=O)(=O)N2)cnn1C (stereo not drawn) [Compound 740] | < 50 |
| CN1C(C(=O)Nc2ccc(F)c(Cl)c2)CC(C(=O)NCc2cnc(-c3ccccc3Cl)s2)NS1(=O)=O (stereo not drawn) [Compound 912] | < 50 |
| C[C@H](NC(=O)C1CC(C(=O)Nc2ccc(F)c(Cl)c2)N(C)S(=O)(=O)N1)c1ccc(C(F)(F)F)cc1 (single isomer, unassigned) [493-S-ISOMER-A] | < 50 |
| Cc1c(CNC(=O)C2CC(C(=O)Nc3ccc(F)c(Cl)c3)N(C)S(=O)(=O)N2)nnn1-c1ccccc1 (stereo not drawn) [Compound 1148] | 100 to 10000 |
| CN(C)CC(C)(C)COc1ccc(-c2ncc(CNC(=O)C3CC(C(=O)Nc4ccc(F)c(Cl)c4)N(C)S(=O)(=O)N3)s2)cc1 (single isomer, unassigned) [Compound 943-ISOMER-A, N3-(3-chloro-4-fluoro-phenyl)-N5-[[2-[4-[3-(dimethylamino)-2,2-dimethyl-propoxy]phenyl]thiazol-5-yl]methyl]-2-methyl-1,1-dioxo-1,2,6-thiadiazinane-3,5-dicarboxamide] | < 50 |
| CN1C(C(=O)Nc2ccc(F)c(Cl)c2)CC(C(=O)N[C@@H]2CCN(c3ccnc(Cl)c3)C2)NS1(=O)=O (single isomer, unassigned) [1055-R-ISOMER-A] | 100 to 10000 |
